Tests used:
tubulin = assay: HTS-tubulin polymerization assay; assay type: biochemical; settings: 120-min kinetic reaction, absorbance 340 nm, vs vehicle
Experimental: To further evaluate whether the tubulin–microtubule system was the target site of PCH-1, in vitro microtubule polymerization assays were performed using the microtubule protein with Paclitaxel and Vincristine as a reference. Paclitaxel and Vincristine are antimitotic drugs that have been commonly used in conventional chemotherapy for decades. In 1979, it was shown that Paclitaxel accelerates the initiation of tubulin fiber polymerization and stabilizes the formed tubulin fibers in vitro, even in the absence of GTP or MAP in the solution[30]. Vincristine, on the other hand, binds to tubulin and inhibits its polymerization.
The assay was performed according to the manufacturer’s instructions. Briefly, compounds were diluted in DMSO to a concentration of 2 mM and then in GTB buffer to a concentration of 50 µM. In the wells of a 96-well plate (UV transparent, half surface wells) previously heated to 37 °C, 10 µl of dilutions of the test compounds were placed in duplicate. The plate was incubated for 2 min at 37 °C, and 100 µl of freshly prepared tubulin solution (4 mg/ml) in GTB-GTP buffer was then added. The plate was immediately placed in a Tecan SPARK 10 M plate reader, and the reaction kinetics were measured with the following settings: absorbance reading: 340 nm, 37 °C, interval: 45 s, number of cycles: 160.

H226 cells = assay: MTT cell viability assay, H226; assay type: cell-based, human
Experimental: (§1) All the synthesized chalcone-derived pyrazoles were evaluated for their antiproliferative activity against three human non-small cell lung cancer cell lines: A-549, H226, and H460, and a nonmalignant human embryonic kidney cell line HEK293. Cisplatin and 5-fluorouracil (5-FU) were used as a reference. Cells were exposed to a range of PCH concentrations (0.5–100 µM) for 72 h and analyzed by 3-(4,5-dimethylthiazol-2-yl)-2,5-diphenyl-2H-tetrazolium bromide (MTT) assay. The results of the studies are expressed as the IC50 concentration that inhibits 50% growth of cells. […] Following treatment with PCH-1, the viability of all the tested cancer cell lines decreased in a concentration-dependent manner.
(§2) The cell viability assay was performed for A-549, H226, H460, and HEK293 cells after treatment with the test compounds by using the 3-(4,5-dimethylthiazol-2-yl)-2,5-diphenyltetrazolium bromide (MTT, Sigma-Aldrich) assay. Briefly, cells were seeded onto 96-well culture plates for attachment. After 24 h, triplicate wells were treated with DMSO (1%) and the agents. After 72 h of incubation at 37 °C in 5% CO2, the MTT solution (0.4 mg/ml) was added to each well. After 2–4 h of incubation, the medium was removed, and the formazan crystals were dissolved in 100 μl of DMSO. The absorption was measured at 450 nm with an ASYS UVM340 microplate reader (Biochrom Ltd.). The 50% inhibitory concentration (IC50) was defined as the concentration that reduced the absorbance of the DMSO-treated wells by 50% of the vehicle. The IC50 values were generated from GraphPad Prism 9 software by plotting the survival curve as a function of dose from 3 independent experiments.

HEK293 cells = assay: MTT cell viability assay, HEK293; assay type: cell-based, human; settings: Homo sapiens, HEK293, 72 h, nonmalignant cells, read-out: IC50 ± SD, growth inhibition, HEK293
Experimental: as §1, §2

H460 cells = assay: MTT cell viability assay, H460; assay type: cell-based, human
Experimental: as §1, §2

A-549 cells = assay: Intracellular ROS measurement (H2DCFDA, flow cytometry); assay type: cell-based, human
Source text: The generation of intracellular reactive oxygen species (ROS) causes an imbalance of cellular redox homeostasis, followed by damage of cellular components and cell death. Therefore, compounds with the ability to produce high levels of ROS and/or inhibit antioxidant processes are often used in anticancer therapies. In the present study, the effect of PCH-1 on ROS generation in A-549 cells was investigated by flow cytometry. As an indicator of ROS generation, the fluorescent probe 2ʹ,7ʹ-dichlorodihydrofluorescein diacetate (H2DCFDA) was used, which undergoes oxidation by ROS to form a highly fluorescent compound 2ʹ,7ʹ-dichlorofluorescein (DCF). As shown in Supplementary Fig. S6 in Supplementary Information, compound PCH-1 induced a massive amount of ROS in A-549 cells in a time-dependent manner. […] Moreover, the induction of ROS was equally high for PCH-1 and the reference compound H2O2 in all the tested time points.
For determination the ROS generation, cells were treated with IC90 of PCH-1, H2O2, or 1% DMSO for 3, 6, and 24 h. Next, a 1 µM CM-H2DCFDA (#C6827; Thermo-Fisher) probe was added to the cells in each plate 30 min before the end of the drug treatment. After incubation cells were collected by trypsinization, stained with 7-Aminoactinomycin D (7-AAD, Sigma-Aldrich), and measured. The analysis was performed with Guava EasyCyte 8 cell sorter (Merck Millipore) and FlowJo software v10. Each experiment was repeated independently three times.

For COc1ccc(C2CC(c3cc4c(cc3OC)OCO4)=NN2C(C)=O)cc1 (stereo not drawn) [PCH-1, 1-[3-(6-methoxy-2H-1,3-benzodioxol-5-yl)-5-(4-methoxyphenyl)-4,5-dihydro-1H-pyrazol-1-yl]ethan-1-one], the “effect on tubulin polymerization kinetics” value (tubulin) was “remarkably reduced the total mass of tubulin polymer”, the “superior activity to the reference compound Cisplatin, H226” value (H226 cells; 72 h IC50 ratio) was roughly 3.7 fold and the IC50 (H226 cells; Homo sapiens, NCI-H226, 72 h, MTT, read-out: IC50 ± SD, growth inhibition, H226) was 4.69 ± 0.43 µM. The IC50 (HEK293 cells) was 20.9 ± 2.34 µM, the “superior activity to the reference compound Cisplatin, H460” value (H460 cells; 72 h IC50 ratio) was roughly 2.6 fold and the IC50 (H460 cells; Homo sapiens, NCI-H460, 72 h, MTT, read-out: IC50 ± SD, growth inhibition, H460) was 8.4 ± 1.1 µM. The “increase of ROS towards vehicle control” value (A-549 cells; A-549, IC90, 3 h) was 15%, the “increase of ROS towards vehicle control” value (A-549 cells; A-549, IC90, 6 h) was 56.9% and the “increase of ROS towards vehicle control” value (A-549 cells; A-549, IC90, 24 h) was 68.1%.
